Results from patent US20150203517A1, “Prodrugs of Compounds that Enhance Antifungal Activity and Compositions of Said Prodrugs” (priority 2014, published 2015).
Where two headings read alike, the source gives them in different places.

Key:
[1] = Saline solubility at 1.00 mg/mL and 0.50 mg/mL (with pH by indicator paper); assay type: physicochemical; conditions: for pH at 1.00 mg/mL of MGCD290 in saline: final concentration of hydroxamate 1 1.00 mg/mL, pH indicator paper; for solubility at 1 h: saline or isotonic, thermodynamic from solid, centrifuged, soluble = no precipitate formed
Procedure: Assays were performed to determine the saline solubility at 1.00 and 0.50 mg/ml and the stability of certain of the prodrug compounds of Examples 1-111. The following procedures were used.
Step 1. Sample preparation. An amount of the compound sample was precisely weighed to correspond to around 5 mg of the hydroxamate of compound 1, taking into account the mass of the leaving group and the salt factor if applicable. The sample was placed in a 16×125 mm glass screw cap tube. Saline was added so that the final concentration of hydroxamate 1 was 1.00 mg/mL. The pH was measured with pH indicator paper. The tube was shaken for 1 hour on a Vortex apparatus then centrifuged at 3000 rpm (1800 rcf) for 5 minutes. If the compound example was soluble (no precipitate formed) the procedure continued to step 2. If a precipitate formed then the sample was diluted with saline so that the final concentration of the hydroxamate of compound 1 was 0.50 mg/mL, and the shaking and centrifuging steps were repeated. If the compound example was soluble (no precipitate formed) the procedure continued to step 2. If a precipitate formed the sample was discarded. Step 2. HPLC analysis. A 500 μL aliquot of a sample solution prepared according to Step 1 was taken up into a 1.5 mL injection vial to which was added 500 μL of saline. The vial was shaken on a Vortex apparatus, injected into the HPLC instrument (UV detection, zero time point) and the retention time and purity of the sample compound were determined. The injection was repeated after 6 hours and 24 hours, and a comparison was made of the retention time, peak areas and level of degradation (if any) using the GDADI50 method.

[2] = Conversion of prodrugs to compound 1 in mouse plasma; assay type: in vitro ADME; conditions: mouse plasma (Na-Heparin treated)
Procedure: Step 1. Sample preparation. A quantity of blank mouse plasma (Na-Heparin treated) was incubated at 37° C. for 30 minutes. An amount of the compound sample was precisely weighed to correspond to around 5.00 mg of the hydroxamate of compound 1, taking into account the mass of the leaving group and the salt factor if applicable. The sample was placed in a 16×125 mm glass screw cap tube. The incubated blank mouse plasma was added so that the final concentration of hydroxamate 1 was 1.00 mg/mL. The sample was sonicated for 30 seconds, shaken for 30 seconds on a Vortex apparatus, and run through the HPLC procedure of Step 2 to get a time point zero value. The samples were stored in an incubator at 37° C., and the HPLC analysis of Step 2 was repeated at 30 minutes and 1 hour
Step 2. Protein precipitation and HPLC analysis of plasma. A 50 μL aliquot of plasma was taken in a 1.5 mL Eppendorf vial, to which was added 200 μL of MeCN. The vial was capped and shaken on a Vortex apparatus for 30 seconds, then centrifuged at 13000 rpm (15700 rcf) for five minutes. When centrifuging was complete, 100 μL of the supernatant was placed in an injection vial containing an insert, to which was added 100 μL of 0.1% formic acid in water. The vial was capped and shaken on a Vortex apparatus for 30 seconds, and the contents were injected into the HPLC-UV instrument, and a comparison was made of the retention time, peak areas and level of degradation (if any) using the GDADI50 method.

[3] = 1.00 mg/mL as hydroxamate 1, shaken 1 hour, read-out: Soluble at 1.00 mg/mL of MGCD290 (Y/N)
[4] = 0.50 mg/mL as hydroxamate 1, shaken 1 hour, read-out: Soluble at 0.5 mg/mL of MGCD290 (Y/N)

| SMILES | pH at 1.00 mg/mL of MGCD290 in saline [1] | solubility at 1 h [1, 3] [µg/mL] | Prodrug loss at 0.5 hr ([2]; 37° C., 0.5 hr) [%] | Prodrug loss at 1 hr ([2]; 37° C., 1 hr) [%] | Prodrug solubility in plasma ([2]; equivalent to 1.00 mg/mL of compound 1, * = Plasma quickly became cloudy) | solubility at 1 h [1, 4] [µg/mL] |
| --- | --- | --- | --- | --- | --- | --- |
| COCCOCCOCCOCCOCCOCC(=O)N1CCC(C(=O)ONC(=O)Cc2ccc(CCCCc3ccccc3)cc2)CC1 [Compound 120] | 4.5-5 | > 1000 | 100 | 100 | Yes | – |
| COCCOCCOCC(=O)NCCN(CC(=O)NCCC(=O)ONC(=O)Cc1ccc(CCCCc2ccccc2)cc1)C(=O)COCCOCCOC [Compound 136] | 5.5-6 | < 1000 | – | – | – | < 500 |
| COCCOCCOCC(=O)NCCCC[C@H](N)C(=O)NCCC(=O)ONC(=O)Cc1ccc(CCCCc2ccccc2)cc1.Cl [Compound 142, (S)-2-Amino-6-(2-(2-(2-methoxyethoxy)ethoxy)acetamido)-N-(3-oxo-3-(2-(4-(4-phenylbutyl)phenyl)acetamidooxy)propyl) hexanamide hydrochloride] | 5-5.5 | > 1000 | – | – | – | – |
| COCCOCCOCC(=O)NC[C@H](NC(=O)COCCOCCOC)C(=O)NCCC(=O)ONC(=O)Cc1ccc(CCCCc2ccccc2)cc1 [Compound 143] | 4.5-5 | < 1000 | – | – | – | < 500 |
| COCCC(=O)NC[C@H](NC(=O)CCOC)C(=O)NCCC(=O)ONC(=O)Cc1ccc(CCCCc2ccccc2)cc1 [Compound 144] | 4.5-5 | < 1000 | – | – | – | < 500 |
| COCCOCC(=O)NC[C@H](NC(=O)COCCOC)C(=O)NCCC(=O)ONC(=O)Cc1ccc(CCCCc2ccccc2)cc1 [Compound 145] | 4.5-5 | < 1000 | – | – | – | < 500 |
| CC(=O)OCC(=O)NC[C@H](NC(=O)COC(C)=O)C(=O)NCCC(=O)ONC(=O)Cc1ccc(CCCCc2ccccc2)cc1 [Compound 146] | 4.5-5 | < 1000 | – | – | – | < 500 |
| COCCOCCOCC(=O)NCC[C@H](NC(=O)COCCOCCOC)C(=O)NCCC(=O)ONC(=O)Cc1ccc(CCCCc2ccccc2)cc1 [Compound 147] | 4.5-5 | < 1000 | – | – | – | < 500 |
| COCCC(=O)NCCCC[C@H](NC(=O)CCOC)C(=O)NCCC(=O)ONC(=O)Cc1ccc(CCCCc2ccccc2)cc1 [Compound 148] | 4.5-5 | < 1000 | – | – | – | < 500 |
| COCCOCCOCCOCCOCC(=O)NCC[C@H](NC(=O)COCCOCCOCCOCCOC)C(=O)NCCC(=O)ONC(=O)Cc1ccc(CCCCc2ccccc2)cc1 [Compound 149] | 4.5-5 | < 1000 | – | – | – | < 500 |
| COCCOCCOCCOCCOCCOCC(=O)NCC[C@H](NC(=O)COCCOCCOCCOCCOCCOC)C(=O)NCCC(=O)ONC(=O)Cc1ccc(CCCCc2ccccc2)cc1 [Compound 150] | 4.5-5 | < 1000 | – | – | – | < 500 |

More lines, now with the values ahead:

| pH at 1.00 mg/mL of MGCD290 in saline [1] | solubility at 1 h [1, 3] [µg/mL] | Prodrug loss at 0.5 hr ([2]; 37° C., 0.5 hr) [%] | Prodrug loss at 1 hr ([2]; 37° C., 1 hr) [%] | Prodrug solubility in plasma ([2]; equivalent to 1.00 mg/mL of compound 1, * = Plasma quickly became cloudy) | solubility at 1 h [1, 4] [µg/mL] | SMILES |
| --- | --- | --- | --- | --- | --- | --- |
| 4.5-5 | < 1000 | – | – | – | < 500 | CC(=O)OCC(=O)NCC[C@H](NC(=O)COC(C)=O)C(=O)NCCC(=O)ONC(=O)Cc1ccc(CCCCc2ccccc2)cc1 [Compound 151] |
| 4.5-5 | < 1000 | – | – | – | < 500 | COCCC(=O)NCC[C@H](NC(=O)CCOC)C(=O)NCCC(=O)ONC(=O)Cc1ccc(CCCCc2ccccc2)cc1 [Compound 152] |
| 4.5-5 | < 1000 | – | – | – | < 500 | CC(=O)OCC(=O)NCCCC[C@H](NC(=O)COC(C)=O)C(=O)NCCC(=O)ONC(=O)Cc1ccc(CCCCc2ccccc2)cc1 [Compound 154] |
| 4.5-5 | < 1000 | – | – | – | < 500 | COC(=O)NCCCC[C@H](NC(=O)OC)C(=O)NCCC(=O)ONC(=O)Cc1ccc(CCCCc2ccccc2)cc1 [Compound 155] |
| 4.5-5 | < 1000 | – | – | – | < 500 | COCCC(=O)NCCC[C@H](NC(=O)CCOC)C(=O)NCCC(=O)ONC(=O)Cc1ccc(CCCCc2ccccc2)cc1 [Compound 156] |
| 4.5-5 | < 1000 | – | – | – | < 500 | CC(=O)OCC(=O)NCCC[C@H](NC(=O)COC(C)=O)C(=O)NCCC(=O)ONC(=O)Cc1ccc(CCCCc2ccccc2)cc1 [Compound 157] |
| 4.5-5 | < 1000 | – | – | – | < 500 | COCCOCC(=O)NCCC[C@H](NC(=O)COCCOC)C(=O)NCCC(=O)ONC(=O)Cc1ccc(CCCCc2ccccc2)cc1 [Compound 158] |
| 4.5-5 | < 1000 | – | – | – | < 500 | COCCOCCOCC(=O)NCCC[C@H](NC(=O)COCCOCCOC)C(=O)NCCC(=O)ONC(=O)Cc1ccc(CCCCc2ccccc2)cc1 [Compound 159] |
| 4.5-5 | < 1000 | – | – | – | < 500 | COCCOCCOCCOCCOCC(=O)NCCC[C@H](NC(=O)COCCOCCOCCOCCOC)C(=O)NCCC(=O)ONC(=O)Cc1ccc(CCCCc2ccccc2)cc1 [Compound 160] |
| 4.5-5 | < 1000 | – | – | – | < 500 | COCCOCC(=O)NCCCC[C@H](NC(=O)COCCOC)C(=O)NCC1(C(=O)ONC(=O)Cc2ccc(CCCCc3ccccc3)cc2)CC1 [Compound 161] |
| 4.5-5 | > 1000 | – | – | – | – | COCCOCCOCC(=O)NCCCC[C@H](NC(=O)COCCOCCOC)C(=O)NCC1(C(=O)ONC(=O)Cc2ccc(CCCCc3ccccc3)cc2)CC1 [Compound 162] |
| 4.5-5 | < 1000 | – | – | – | < 500 | COCCOCC(=O)NCC[C@H](NC(=O)COCCOC)C(=O)NCCC(=O)ONC(=O)Cc1ccc(CCCCc2ccccc2)cc1 [Compound 163] |
